Data on 34 compounds can be found in ChEMBL document CHEMBL1140635, “Computational modeling tools for the design of potent antimalarial bisbenzamidines: overcoming the antimalarial potential of pentamidine” (Bioorg Med Chem, 2007).

The test system of this assay is Plasmodium falciparum. The experiment in a line: Antiplasmodial activity against chloroquine-sensitive Plasmodium falciparum D6 by LDH reporter assay. The assay is classed as functional, organism-based.
The IC50 is the concentration that inhibits the measured activity by half. Lower therefore signals greater potency in that assay. `N=C(NC1CC1)c1ccc(N2CCN(c3ccc(C(=N)NC4CC4)cc3)CC2)cc1` had an IC50 of 358 nM. This lies in the sub-micromolar range.
To `CC(C)CCNC(=N)c1ccc(N2CCN(c3ccc(C(=N)NCCC(C)C)cc3)CC2)cc1` belongs 42 nM.
To `C(=C1CCN(c2ccc(C3=NCCN3)cc2)CC1)c1ccc(C2=NCCN2)cc1` belongs 840 nM; to `N=C(N)c1ccc(OCc2ccc(COc3ccc(C(=N)N)cc3)cc2)cc1`, 114 nM; to `CCCNC(=N)c1ccc(N2CCN(c3ccc(C(=N)NCCC)cc3)CC2)cc1`, 29 nM.
To `N=C(N)c1ccc(COc2ccccc2OCc2ccc(C(=N)N)cc2)cc1` belongs 671 nM; to `N=C(NC1CCCCCCC1)c1ccc(N2CCN(c3ccc(C(=N)NC4CCCCCCC4)cc3)CC2)cc1`, 55 nM.
`N=C(N)c1ccc(OCCCCCOc2ccc(C(=N)N)cc2)cc1` [PENTAMIDINE]: the IC50 amounted to 278 nM. This IC50 lies about 5.1-fold higher than the previous one.
To `CCCCCCCCCCNC(=N)c1ccc(N2CCN(c3ccc(C(=N)NCCCCCCCCCC)cc3)CC2)cc1` belongs 75 nM; to `CCCCNC(=N)c1ccc(N2CCCN(c3ccc(C(=N)NCCCC)cc3)CC2)cc1`, 18 nM.
The same measure for `N=C(N)c1ccc(NC(=O)CCCCC(=O)Nc2ccc(C(=N)N)cc2)cc1`: 640 nM; for `N=C(NC1CCC1)c1ccc(N2CCN(c3ccc(C(=N)NC4CCC4)cc3)CC2)cc1`: 7 nM.
The same measure for `N=C(N)c1ccc(OCc2cccc(COc3ccc(C(=N)N)cc3)c2)cc1`: 85 nM; for `c1cc(N2CCCN(c3ccc(C4=NCCCN4)cc3)CC2)ccc1C1=NCCCN1`: 5110 nM.
Turning to `N=C(NC1CC1)c1ccc(N2CCCN(c3ccc(C(=N)NC4CC4)cc3)CC2)cc1`, the 50% inhibitory concentration (IC50) worked out at 306 nM.
To `CCCCCCCCNC(=N)c1ccc(N2CCN(c3ccc(C(=N)NCCCCCCCC)cc3)CC2)cc1` belongs 138 nM; to `CCCCCCCCCNC(=N)c1ccc(N2CCN(c3ccc(C(=N)NCCCCCCCCC)cc3)CC2)cc1`, 88 nM.
As to `c1cc(N2CCN(c3ccc(C4=NCCN4)cc3)CC2)ccc1C1=NCCN1`, half-maximal inhibition (IC50) was put at 89 nM.
To `c1cc(N2CCN(c3ccc(C4=NCCCN4)cc3)CC2)ccc1C1=NCCCN1` belongs 106 nM.
To `c1cc(N2CCCN(c3ccc(C4=NCCN4)cc3)CC2)ccc1C1=NCCN1` belongs 148 nM.
The same measure for `CCCCCCCCCCCCNC(=N)c1ccc(N2CCN(c3ccc(C(=N)NCCCCCCCCCCCC)cc3)CC2)cc1`: 3890 nM; for `CCCCCCNC(=N)c1ccc(N2CCN(c3ccc(C(=N)NCCCCCC)cc3)CC2)cc1`: 35 nM.
Turning to `CCCCCNC(=N)c1ccc(N2CCN(c3ccc(C(=N)NCCCCC)cc3)CC2)cc1`, the IC50 was determined as 21 nM.
To `CCCCCCCNC(=N)c1ccc(N2CCN(c3ccc(C(=N)NCCCCCCC)cc3)CC2)cc1` belongs 48 nM; to `c1ccc2[nH]c(-c3ccc(N4CCN(c5ccc(-c6nc7ccccc7[nH]6)cc5)CC4)cc3)nc2c1`, 4880 nM; to `c1cc(C2=NCCN2)ccc1CC1CCN(c2ccc(C3=NCCN3)cc2)CC1`, 402 nM.
The same measure for `N=C(NO)c1ccc(N2CCN(c3ccc(C(=N)NO)cc3)CC2)cc1`: 8320 nM; for `CCC(C)CNC(=N)c1ccc(N2CCN(c3ccc(C(=N)NCC(C)CC)cc3)CC2)cc1` (centres undefined): 69 nM; for `N=C(N)c1ccc(N2CCCN(c3ccc(C(=N)N)cc3)CC2)cc1`: 1600 nM.
In turn, `N=C(NCCCO)c1ccc(N2CCN(c3ccc(C(=N)NCCCO)cc3)CC2)cc1` showed an IC50 of 8800 nM. Against the preceding compound, the IC50 is about 5.5-fold higher.
To `N=C(N)c1ccc(OCc2ccccc2COc2ccc(C(=N)N)cc2)cc1` belongs 313 nM; to `N=C(NC1CCCCCC1)c1ccc(N2CCN(c3ccc(C(=N)NC4CCCCCC4)cc3)CC2)cc1`, 36 nM; to `CNC(=N)c1ccc(N2CCN(c3ccc(C(=N)NC)cc3)CC2)cc1`, 862 nM.
The same measure for `CCNC(=N)c1ccc(N2CCN(c3ccc(C(=N)NCC)cc3)CC2)cc1`: 124 nM.
